The values that follow come from patent publication US20210401918A1, “COMPOSITION COMPRISING COMBINATION OF RED CLOVER EXTRACT AND HOPS EXTRACT FOR IMPROVEMENT OF MENOPAUSAL DISORDER” (NATURETECH CO. LTD., priority 2018, published 2021).

For the test, the system named is MCF-7 cells. Description: MCF-7 cells proliferation assay (MTS). The class given is cell-based, human. How it is done: MCF-7 cells (human breast cancer cells) were obtained from the Korea Cell Line Bank and used. RPMI (Gibco, USA) medium containing 10% FBS (Gibco, USA) and 1% penicillin-streptomycin (Gibco, USA) was used as cell culture medium, and cells were cultured in 5% CO2, 37° C. incubator. The medium was replaced every two days, and cells were sub-cultured every 4-5 days. HUVECs (human umbilical vein endothelial cells) were obtained from LONZA and used. M200 (Gibco, USA) containing LSGS kit (Gibco, USA) was used as cell culture medium, and only cells at passage 3-5 were used for the experiment.
Estrogen-free medium, which was prepared by diluting phenol red-free RPMI (Gibco, USA) with 5% dextran-coated charcoal-stripped FBS (TCB, USA) and 1% penicillin-streptomycin, was used for the experiment. After reacting cells in the estrogen-free medium for 3 days, they were seeded in a 96-well plate at a concentration of 1.5×10^4 cells/well and incubated in 5% CO2, 37° C. incubator for 24 hours, and then were treated with the sample so that the final DMSO concentration was 0.1%. E2 was used as the positive control, and ICI 182,780 (Sigma Chem. Co., USA) was used as the negative control. After 72 hours of sample treatment, MTS analysis was performed using CellTiter 96®Aqueous One Solution (Promega, Germany) reagent. Each well was treated with 20 μl of MTS reagent, reacted in 5% CO2, 37° C. incubator for 3 hours, and the absorbance was measured at 490 nm using a microplate reader.
In order to ascertain whether each sample acts on the estrogen receptor to show a cell proliferation effect, the sample was treated together with the estrogen receptor inhibit ICI 182,780, and the results are shown in Table 9.

As to `C[C@]12CC[C@@H]3c4ccc(O)cc4CC[C@H]3[C@@H]1CC[C@@H]2O` [Estradiol, 17β-estradiol], where the note is “Table 8, 1 nM, 72 hours, Control = 100”, the “Proliferation (%)” value was 135.78 ± 2.83 %. For the same compound, the “Proliferation (%) with ICI 182,780” value (Table 9, 1 nM, together with ICI 182,780) worked out at 92.27 ± 2.04%. In addition, the “Proliferation (%) without ICI 182,780” value (Table 9, 1 nM, without ICI 182,780) is recorded as 143.39 ± 10.46%.
`C[C@]12CC[C@@H]3c4ccc(O)cc4C[C@@H](CCCCCCCCC[S+]([O-])CCCC(F)(F)C(F)(F)F)[C@H]3[C@@H]1CC[C@@H]2O` (stereo partly shown) [ICI 182,780]: the “Proliferation (%) with ICI 182,780” value (Table 9, Control (sample 0 μg/ml) with ICI 182,780 alone) was determined as 86.55 ± 1.95%.
